Measurements reported in patent US20250152605A1, “METHOD AND DRUG FOR TREATING NEURONAL CEROID LIPOFUSCINOSIS” (priority 2021, published 2025).

What was measured:
[1] = tested on: KEAP1-knockdown CLN3^Δex7/8 human neurons; assay: Lysotracker staining of KEAP1-knockdown CLN3^Δex7/8 human neurons; assay type: cell-based; conditions: added to KEAP1-knockdown CLN3^Δex7/8 human neurons
Method: shRNA knockdown experiments of genes such as CLN3 and KEAP1 were conducted in induced neural stem cells and neurons, with specific steps as follows: the neural stem cells were planted into a desired cell culture plate to a cell density of about 50% or the neural stem cells were differentiated into human neurons in the cell culture plate according to experimental requirements; the shRNA lentiviral plasmids of CLN3 and KEAP1 genes and the control lentiviral plasmid expressing non-target sequences were selected from the MISSIOH human shRNA library of Sigma Aldrich, and the sequences were shown in Table 6; Lentiviruses was packaged in 10 cm cell culture plates and virus-containing supernatant was collected by filtration according to the method described above; the supernatant and lentivirus concentrate (40% PEG-8000 and 1.2M sodium chloride dissolved in dPBS solution, pH˜ 7.0) were mixed in a volume ratio of 1:3, and incubated overnight at 4° C. with slow rotation; centrifugation at 13000 g for 30 minutes at 4° C., and the supernatant was discarded, and the pellet was resuspended in 1 mL of fresh cell culture medium and added to the target cells; after 8 hours of infection, the virus was aspirated and fresh cell culture medium was added; 48 hours after infection, 1.5 μg/mL puromycin was added for selection for 72 hours, and the surviving cells were used for subsequent experiments. […]

SCMAS protein = SCMAS protein storage in neurons (immunofluorescence staining and western blot); assay type: cell-based, human; conditions: CLN3^Δex7/8 neurons
Method: Sample preparation: for adherent cultured cells, exemplified by cells cultured in a six-well cell plate, the cell medium was aspirated and the cells were washed once with dPBS. About 100 μL of RIPA lysate (50 mM Tris-HCl, pH 7.5, 150 mM NaCl, 0.25% Na-deoxycholate, 0.1% NP-40, 0.1% Triton X-100) containing protease inhibitors and phosphatase inhibitors was added to each well. The cell lysate was scraped off completely with a cell scraper and collected into 1.5 mL EP tubes. Lysis was continued for 30 minutes on ice. For animal tissue, the weight of the animal tissue was weighed, and RIPA lysate containing protease inhibitors and phosphatase inhibitors was added with five times the volume of the animal tissue. The tissue was grinded on ice with a tissue grinder until there is no obvious tissue mass, collected into 1.5 mL EP tubes, and placed on ice for further lysis for 30 min. […]

[2] = tested on: CLN3^Δex7/8 neural stem cells; assay: Differentiation of CLN3^Δex7/8 neural stem cells into neurons; assay type: cell-based, human; conditions: after 17 days of differentiation
Method: When the density of human induced neural stem cells reached 85-95%, passage was performed at 1:20-1:50 according to the above method. The medium on the day of passage (recorded as Day 1 of differentiation) was human neural stem cell maintenance medium with 10 μM Y27632, which was removed after 24 h, and culture continued in human neural stem cell maintenance medium for 48 hours. On Day 4 of differentiation, the medium was changed to human neuronal differentiation medium (human neuronal medium: DMEM/F12 medium+10 ng/ml hBDNF+10 ng/ml hGDNF+300 ng/mL cAMP+0.2 mM vitamin C+1×N2+1×B27+1% Penicillin/Streptomycin), with medium change halfly every other day. Human neurons highly expressing MAP2 and TUJ1 proteins were obtained on Day 17 of differentiation. Thereafter, the human neurons could be continuously cultured in the human neuron differentiation medium, with medium change halfly every other day.
Starting from the same number of human neural stem cells induced to differentiate into human neurons, CLN3^Δex7/8 neural stem cells eventually generated a lower number of neurons than wild-type cells. During the process of neurons differentiation, the seven small molecule compounds obtained above were each added to the culture medium and observed for their effects on the differentiation process of CLN3^Δex7/8 neural stem cells into neurons.

## C/C=C1\C(=O)C[C@H]2[C@@H]3CCC4=CC(=O)CC[C@]4(C)[C@H]3CC[C@]12C [Compound G, (Z)-guggulsterone]
[1]
  Lysotracker average fluorescence intensity: could not further increase
SCMAS protein
  abnormal storage of SCMAS protein: significant reduction
[2]
  MAP2 and TUJ1-positive neurons generated from the same number of cells: generate more MAP2 and TUJ1-positive neurons
